From ChEMBL document CHEMBL5728268, “Substituted tricyclic heterocyclic compounds and use thereof” (2021)

Biological target: Tyrosine-protein kinase JAK2 (Homo sapiens, UniProt O60674)
Test: JAK2 Assay: JAK2 (5-20 mU diluted in 50 mM Tris pH 7.5, 0.1 mM EGTA, 0.05% 0-mercaptoethanol, 1 mg/ml BSA) is assayed against PDKtide ([…]-[…]) in a final volume of 25.5 μl containing 50 mM Tris pH 7.5, 0.1 mM EGTA, 0.05% 0-mercaptoethanol, 100 μM substrate peptide, 10 mM magnesium acetate and 0.005 mM [33P-γ-ATP] (50-1000 cpm/pmole) and incubated for 30 min at room temperature Assays are stopped by addition of 5 μl of 0.5 M (3%) orthophosphoric acid and then harvested onto P81 Unifilter plates with a wash buffer of 50 mM orthophosphoric acid.

Tyrosine-protein kinase JAK2, sequence (O60674 whole entry): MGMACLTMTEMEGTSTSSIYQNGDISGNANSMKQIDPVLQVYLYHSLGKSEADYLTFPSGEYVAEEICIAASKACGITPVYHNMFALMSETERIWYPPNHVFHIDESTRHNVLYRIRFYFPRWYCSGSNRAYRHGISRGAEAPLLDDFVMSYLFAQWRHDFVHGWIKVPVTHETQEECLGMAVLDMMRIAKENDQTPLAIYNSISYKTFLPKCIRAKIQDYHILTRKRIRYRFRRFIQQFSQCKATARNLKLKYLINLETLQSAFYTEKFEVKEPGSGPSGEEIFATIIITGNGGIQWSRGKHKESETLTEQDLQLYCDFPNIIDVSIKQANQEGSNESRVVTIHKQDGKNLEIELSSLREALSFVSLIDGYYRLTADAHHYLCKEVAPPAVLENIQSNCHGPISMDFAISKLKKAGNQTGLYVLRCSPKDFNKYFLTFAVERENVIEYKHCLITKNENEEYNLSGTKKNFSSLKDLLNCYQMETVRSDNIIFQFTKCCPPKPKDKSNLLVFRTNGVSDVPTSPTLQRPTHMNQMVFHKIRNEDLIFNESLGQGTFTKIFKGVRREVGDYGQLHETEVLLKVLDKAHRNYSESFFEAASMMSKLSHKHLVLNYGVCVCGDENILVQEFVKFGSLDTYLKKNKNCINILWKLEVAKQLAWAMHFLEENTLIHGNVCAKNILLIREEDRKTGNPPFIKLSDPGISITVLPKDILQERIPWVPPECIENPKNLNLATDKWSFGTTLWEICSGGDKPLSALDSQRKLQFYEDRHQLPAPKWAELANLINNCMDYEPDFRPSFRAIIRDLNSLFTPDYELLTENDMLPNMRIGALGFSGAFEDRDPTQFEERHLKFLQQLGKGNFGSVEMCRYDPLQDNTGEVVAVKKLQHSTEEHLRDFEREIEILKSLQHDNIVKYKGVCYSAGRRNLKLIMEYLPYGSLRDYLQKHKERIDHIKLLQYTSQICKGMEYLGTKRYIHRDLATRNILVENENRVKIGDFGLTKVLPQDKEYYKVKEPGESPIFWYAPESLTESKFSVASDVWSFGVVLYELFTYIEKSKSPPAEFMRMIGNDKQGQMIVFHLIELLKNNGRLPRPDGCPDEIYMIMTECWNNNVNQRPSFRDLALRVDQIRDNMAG

Compound | IC50 [µM]
c1cc2[nH]nc3c2c(n1)N(C1CCCC1)CCC3 | 6.6
CC(C)N1CCC(N2Cc3c(cnn3C)-c3n[nH]c4ccnc2c34)CC1 | 4.5
CC(C)n1ncc2c1CN(C1CCOCC1)c1nccc3[nH]nc-2c13 | 2.1
Cc1cc2c(cn1)CN(C1CCOCC1)c1nccc3[nH]nc-2c13 | 0.89
CCn1ncc2c1CN(C1CCOCC1)c1nccc3[nH]nc-2c13 | 1.5
CCn1ncc2c1CN(C1CCN(C(C)C)CC1)c1nccc3[nH]nc-2c13 | 5.4
Cn1ncc2c1CN(C1CCOCC1)c1nccc3[nH]nc-2c13 | 0.92
CCc1cc2c(cn1)CN(C1CCOCC1)c1nccc3[nH]nc-2c13 | 1.7
Fc1ccc2c(c1)-c1n[nH]c3ccnc(c13)N(C1CCOCC1)C2 | 0.9
